Test results as given in patent US10934274B2, “Quinoline derivatives as TAM RTK inhibitors” (Qurient Co., Ltd., priority 2015, dated 2021).

Columns and labels:
[1] = molecular target: T1, Mer (Homo sapiens, UniProt Q12866); assay: LanthaScreen Eu kinase binding assay, Mer; conditions: Tracer 236
T1 construct: purchased Life Technologies
T1 sequence (Q12866 21-999): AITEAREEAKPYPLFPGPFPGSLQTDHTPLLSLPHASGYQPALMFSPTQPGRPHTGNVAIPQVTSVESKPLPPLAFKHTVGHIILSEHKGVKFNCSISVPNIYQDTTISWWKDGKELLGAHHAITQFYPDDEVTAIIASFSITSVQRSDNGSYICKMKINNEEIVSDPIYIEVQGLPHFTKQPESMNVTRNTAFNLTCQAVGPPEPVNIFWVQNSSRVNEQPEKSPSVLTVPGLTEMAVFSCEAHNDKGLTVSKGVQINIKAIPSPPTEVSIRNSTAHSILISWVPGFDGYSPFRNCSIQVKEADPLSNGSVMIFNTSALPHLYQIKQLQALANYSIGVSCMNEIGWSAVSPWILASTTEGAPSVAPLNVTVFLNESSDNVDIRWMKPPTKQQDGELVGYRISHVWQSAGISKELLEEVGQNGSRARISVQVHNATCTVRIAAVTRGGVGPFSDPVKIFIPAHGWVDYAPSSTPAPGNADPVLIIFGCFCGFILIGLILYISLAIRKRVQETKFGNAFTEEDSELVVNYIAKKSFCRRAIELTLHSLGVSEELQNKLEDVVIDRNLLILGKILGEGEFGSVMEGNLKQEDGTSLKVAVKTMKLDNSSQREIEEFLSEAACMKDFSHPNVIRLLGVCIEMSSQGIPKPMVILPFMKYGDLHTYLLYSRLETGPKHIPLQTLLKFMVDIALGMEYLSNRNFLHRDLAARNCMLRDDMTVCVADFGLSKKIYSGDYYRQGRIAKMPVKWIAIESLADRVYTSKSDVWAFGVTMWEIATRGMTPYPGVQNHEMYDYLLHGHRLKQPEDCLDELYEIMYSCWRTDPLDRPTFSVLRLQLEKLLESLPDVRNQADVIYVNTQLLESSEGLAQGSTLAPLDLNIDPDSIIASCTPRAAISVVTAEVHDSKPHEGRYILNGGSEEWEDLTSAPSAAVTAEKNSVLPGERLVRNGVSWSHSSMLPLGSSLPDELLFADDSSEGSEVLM

[2] = molecular target: T2, Axl (Homo sapiens, UniProt P30530); assay: LanthaScreen Eu kinase binding assay, Axl; conditions: Tracer 236
T2 construct: purchased Life Technologies
T2 sequence (P30530 26-894): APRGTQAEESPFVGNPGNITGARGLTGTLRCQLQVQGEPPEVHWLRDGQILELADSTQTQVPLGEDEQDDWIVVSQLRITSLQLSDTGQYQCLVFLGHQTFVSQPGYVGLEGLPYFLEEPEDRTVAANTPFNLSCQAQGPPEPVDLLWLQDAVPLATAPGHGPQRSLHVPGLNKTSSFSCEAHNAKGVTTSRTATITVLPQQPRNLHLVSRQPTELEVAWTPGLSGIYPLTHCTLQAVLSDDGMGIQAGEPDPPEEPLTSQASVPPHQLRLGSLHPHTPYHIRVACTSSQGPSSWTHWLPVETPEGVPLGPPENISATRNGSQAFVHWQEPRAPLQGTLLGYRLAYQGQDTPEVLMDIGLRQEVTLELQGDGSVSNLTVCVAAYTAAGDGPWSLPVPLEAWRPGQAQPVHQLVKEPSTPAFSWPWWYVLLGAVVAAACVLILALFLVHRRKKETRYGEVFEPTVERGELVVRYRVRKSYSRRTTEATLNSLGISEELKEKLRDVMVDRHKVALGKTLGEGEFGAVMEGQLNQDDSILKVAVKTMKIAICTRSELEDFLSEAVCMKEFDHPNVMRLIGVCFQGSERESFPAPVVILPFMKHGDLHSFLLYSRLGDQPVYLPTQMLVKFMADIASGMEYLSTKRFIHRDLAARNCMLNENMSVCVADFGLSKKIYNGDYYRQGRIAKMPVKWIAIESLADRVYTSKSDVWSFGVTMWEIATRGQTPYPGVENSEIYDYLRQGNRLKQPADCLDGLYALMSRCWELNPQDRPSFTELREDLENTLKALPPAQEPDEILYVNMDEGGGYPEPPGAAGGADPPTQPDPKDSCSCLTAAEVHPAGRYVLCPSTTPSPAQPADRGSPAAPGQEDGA

[3] = molecular target: T3, Met (Homo sapiens, UniProt P08581); assay: LanthaScreen Eu kinase binding assay, Met; conditions: Tracer 236, read-out: cMet kinase binding activity (Kd)
T3 construct: purchased Life Technologies
T3 sequence (P08581 25-1390): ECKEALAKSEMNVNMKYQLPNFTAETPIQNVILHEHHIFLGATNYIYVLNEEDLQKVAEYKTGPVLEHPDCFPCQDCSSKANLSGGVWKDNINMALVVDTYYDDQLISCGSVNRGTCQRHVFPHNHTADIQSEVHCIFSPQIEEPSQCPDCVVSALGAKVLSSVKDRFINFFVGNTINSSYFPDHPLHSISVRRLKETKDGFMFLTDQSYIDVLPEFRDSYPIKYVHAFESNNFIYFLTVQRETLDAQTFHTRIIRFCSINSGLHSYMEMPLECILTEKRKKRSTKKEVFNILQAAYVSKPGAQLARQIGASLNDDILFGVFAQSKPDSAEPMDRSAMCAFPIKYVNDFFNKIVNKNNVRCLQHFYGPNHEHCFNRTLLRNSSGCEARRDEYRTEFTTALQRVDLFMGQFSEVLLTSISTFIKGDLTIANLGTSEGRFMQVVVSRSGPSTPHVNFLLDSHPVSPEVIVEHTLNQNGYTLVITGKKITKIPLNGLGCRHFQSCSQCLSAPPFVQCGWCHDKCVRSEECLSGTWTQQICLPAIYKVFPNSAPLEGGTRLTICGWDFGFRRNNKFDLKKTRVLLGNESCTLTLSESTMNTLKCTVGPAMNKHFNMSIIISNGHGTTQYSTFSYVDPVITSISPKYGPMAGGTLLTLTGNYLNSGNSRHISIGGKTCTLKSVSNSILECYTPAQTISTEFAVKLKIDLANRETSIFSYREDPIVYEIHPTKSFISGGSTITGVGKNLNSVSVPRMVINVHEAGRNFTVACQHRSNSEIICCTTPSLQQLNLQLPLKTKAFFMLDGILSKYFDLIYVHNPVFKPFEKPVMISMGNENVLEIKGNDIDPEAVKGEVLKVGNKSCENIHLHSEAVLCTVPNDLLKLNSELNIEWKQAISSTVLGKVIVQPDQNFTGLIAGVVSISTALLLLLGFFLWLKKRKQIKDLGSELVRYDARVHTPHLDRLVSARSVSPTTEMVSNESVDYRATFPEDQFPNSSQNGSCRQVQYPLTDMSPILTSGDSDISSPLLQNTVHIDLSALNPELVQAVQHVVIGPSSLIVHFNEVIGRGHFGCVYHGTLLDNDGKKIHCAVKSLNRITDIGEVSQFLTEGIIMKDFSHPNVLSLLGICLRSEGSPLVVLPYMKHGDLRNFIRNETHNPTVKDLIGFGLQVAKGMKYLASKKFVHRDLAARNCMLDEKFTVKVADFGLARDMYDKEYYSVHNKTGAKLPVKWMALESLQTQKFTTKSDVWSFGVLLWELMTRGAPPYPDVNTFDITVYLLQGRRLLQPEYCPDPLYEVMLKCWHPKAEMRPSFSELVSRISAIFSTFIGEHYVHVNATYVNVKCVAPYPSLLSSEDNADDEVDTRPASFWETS

[4] = tested on: HCC827/ER cells; assay: WST-1 cell viability assay in erlotinib-resistant cells; conditions: compound combined with Erlotinib at constant 1:1 ratio, 3 days, FBS 1%
Experimental: The killed cells were discarded and the remaining cells were cultured in a drug-free medium up to 80% confluence. Subsequently, cells were continuously exposed to increasing drug doses of up to 10 μM over a period of 8 months.
HCC827/ER cells were seeded in a 96-well plate with their respective media containing 10% FBS at 5000 cells/well. After seeding, the HCC827/ER cells were incubated for approximately 24 hours. […] The viability of the HCC827/ER cells was determined by adding WST-1 reagent according to Manufacturer's instructions (DoGenbio co., Ltd) and incubating for four hours. The plates were then read using an absorbance of 440 nm on Tecan Microplate reader (Infinite M200 pro, TECAN). The HCC827/ER cells' viability were calculated relative to vehicle (DMSO) control wells.

Structure (SMILES)	Kd [1]	Kd [2]	Kd [3]	Combination effect of compound and erlotinib on inhibition activity in Erlotinib-resistant cell-line [4]
CCOc1cn(CCOC(F)(F)F)nc1C(=O)Nc1ccc(Oc2ccnc3cc(OC)c(OC)cc23)cn1 [Compound 38]	< 100 nM	< 100 nM	< 100 nM	synergistic effect
COc1cc2nccc(Oc3ccc(NC(=O)c4nn(-c5ccc(F)cc5Oc5ccccc5)cc4OCC4CC4)nc3)c2cc1OC [Compound 272]	< 100 nM	100 to 1000 nM	100 to 1000 nM	
COc1cc2nccc(Oc3ccc(NC(=O)c4nn(-c5ccc(F)cc5C(C)=O)cc4OCC4CC4)nc3)c2cc1OC [Compound 273]	< 100 nM	< 100 nM	100 to 1000 nM	
COc1cc2nccc(Oc3ccc(NC(=O)c4nn(-c5ccc(F)c(C(C)=O)c5)cc4OCC4CC4)nc3)c2cc1OC [Compound 274]	< 100 nM	< 100 nM	< 100 nM	
